Test system: 958667-338-R-J2-PDC tumor spheroids viability
Assay: Anticancer human tumor 958667-338-R-J2-PDC patient-derived colon adenocarcinoma cell line growth inhibition [PI3K]
Details: spheroids with HUVEC and MSC; for IC50: curve of first compound; for viability, T/C: stronger effect = lower value; active means viability on the fitted dose curve at most 10% of control; inactive means the rest
Method in brief: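 Spheroid viability read-out. Co-cultures contained the tumor line plus HUVEC and human MSCs. Each agent was paired with a PI3K inhibitor (inavolisib, alpelisib, duvelisib, copanlisib) across half-log dilutions starting at clinical Cmax, or at 10 microM when Cmax was unknown.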

[1] = second compound 0.0316 µM, first compound 0.0316 µM
[2] = second compound 0.0316 µM, first compound 0.1 µM
[3] = second compound 0.1 µM, first compound 0.0316 µM
[4] = second compound 0.1 µM, first compound 0.1 µM
[5] = second compound 0.316 µM, first compound 0.0316 µM
[6] = second compound 0.316 µM, first compound 0.1 µM
[7] = second compound 1 µM, first compound 0.0316 µM
[8] = second compound 1 µM, first compound 0.1 µM
[9] = second compound 3.16 µM, first compound 0.0316 µM
[10] = second compound 3.16 µM, first compound 0.1 µM
[11] = second compound 10 µM, first compound 0.0316 µM
[12] = second compound 10 µM, first compound 0.1 µM
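Further: spheroids exposed to compounds for seven days before readout.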

CC(C)NCC(C(=O)N1CCN(c2ncnc3c2C(C)CC3O)CC1)c1ccc(Cl)cc1 (centres undefined) + CC(Nc1ncnc2nc[nH]c12)c1cc2cccc(Cl)c2c(=O)n1-c1ccccc1
inactive: viability, T/C [1] 81.9% | viability, T/C [2] 97.3% | viability, T/C (second compound 0.0316 µM, first compound 0.316 µM) 72.1% | viability, T/C (second compound 0.0316 µM, first compound 1 µM) 82% | viability, T/C (second compound 0.0316 µM, first compound 3.16 µM) 89.7% | viability, T/C (second compound 0.0316 µM, first compound 10 µM) 64% | viability, T/C [3] 102% | viability, T/C [4] 95.7% | viability, T/C (second compound 0.1 µM, first compound 0.316 µM) 86.5% | viability, T/C (second compound 0.1 µM, first compound 1 µM) 95.7% | viability, T/C (second compound 0.1 µM, first compound 3.16 µM) 92.4% | viability, T/C (second compound 0.1 µM, first compound 10 µM) 68.7% | viability, T/C [5] 94.7% | viability, T/C [6] 104% | viability, T/C (second compound 0.316 µM, first compound 0.316 µM) 80% | viability, T/C (second compound 0.316 µM, first compound 1 µM) 94% | viability, T/C (second compound 0.316 µM, first compound 3.16 µM) 83.3% | viability, T/C (second compound 0.316 µM, first compound 10 µM) 70.5% | viability, T/C [7] 85.9% | viability, T/C [8] 80.6% | viability, T/C (second compound 1 µM, first compound 0.316 µM) 93.4% | viability, T/C (second compound 1 µM, first compound 1 µM) 101% | viability, T/C (second compound 1 µM, first compound 3.16 µM) 77.8% | viability, T/C (second compound 1 µM, first compound 10 µM) 63.4% | viability, T/C [9] 77.4% | viability, T/C [10] 87.5% | viability, T/C (second compound 3.16 µM, first compound 0.316 µM) 102% | viability, T/C (second compound 3.16 µM, first compound 1 µM) 84.2% | viability, T/C (second compound 3.16 µM, first compound 3.16 µM) 80.2% | viability, T/C (second compound 3.16 µM, first compound 10 µM) 64.7% | viability, T/C [11] 91.2% | viability, T/C [12] 88.4% | viability, T/C (second compound 10 µM, first compound 0.316 µM) 79.3% | viability, T/C (second compound 10 µM, first compound 1 µM) 83.2% | viability, T/C (second compound 10 µM, first compound 3.16 µM) 81.7% | viability, T/C (second compound 10 µM, first compound 10 µM) 55.2%
> 10 µM: IC50 (second compound 0.0316 µM) | IC50 (second compound 0.1 µM) | IC50 (second compound 0.316 µM) | IC50 (second compound 1 µM) | IC50 (second compound 3.16 µM) | IC50 (second compound 10 µM)

Cn1ncnc1[C@H]1c2n[nH]c(=O)c3cc(F)cc(c23)N[C@@H]1c1ccc(F)cc1 + CC(Nc1ncnc2nc[nH]c12)c1cc2cccc(Cl)c2c(=O)n1-c1ccccc1
> 0.1 µM: IC50 (second compound 0.0316 µM) | IC50 (second compound 0.1 µM) | IC50 (second compound 0.316 µM) | IC50 (second compound 1 µM) | IC50 (second compound 3.16 µM) | IC50 (second compound 10 µM)
inactive: viability, T/C (second compound 0.0316 µM, first compound 0.000316 µM) 103% | viability, T/C (second compound 0.0316 µM, first compound 0.001 µM) 114% | viability, T/C (second compound 0.0316 µM, first compound 0.00316 µM) 105% | viability, T/C (second compound 0.0316 µM, first compound 0.01 µM) 110% | viability, T/C [1] 113% | viability, T/C [2] 98% | viability, T/C (second compound 0.1 µM, first compound 0.000316 µM) 103% | viability, T/C (second compound 0.1 µM, first compound 0.001 µM) 82.8% | viability, T/C (second compound 0.1 µM, first compound 0.00316 µM) 117% | viability, T/C (second compound 0.1 µM, first compound 0.01 µM) 126% | viability, T/C [3] 119% | viability, T/C [4] 83.6% | viability, T/C (second compound 0.316 µM, first compound 0.000316 µM) 120% | viability, T/C (second compound 0.316 µM, first compound 0.001 µM) 114% | viability, T/C (second compound 0.316 µM, first compound 0.00316 µM) 111% | viability, T/C (second compound 0.316 µM, first compound 0.01 µM) 116% | viability, T/C [5] 118% | viability, T/C [6] 94.7% | viability, T/C (second compound 1 µM, first compound 0.000316 µM) 109% | viability, T/C (second compound 1 µM, first compound 0.001 µM) 112% | viability, T/C (second compound 1 µM, first compound 0.00316 µM) 99.9% | viability, T/C (second compound 1 µM, first compound 0.01 µM) 100% | viability, T/C [7] 95.2% | viability, T/C [8] 96.3% | viability, T/C (second compound 3.16 µM, first compound 0.000316 µM) 107% | viability, T/C (second compound 3.16 µM, first compound 0.001 µM) 109% | viability, T/C (second compound 3.16 µM, first compound 0.00316 µM) 99.2% | viability, T/C (second compound 3.16 µM, first compound 0.01 µM) 89.9% | viability, T/C [9] 94.7% | viability, T/C [10] 89.8% | viability, T/C (second compound 10 µM, first compound 0.000316 µM) 93.7% | viability, T/C (second compound 10 µM, first compound 0.001 µM) 98.3% | viability, T/C (second compound 10 µM, first compound 0.00316 µM) 109% | viability, T/C (second compound 10 µM, first compound 0.01 µM) 89.9% | viability, T/C [11] 83.2% | viability, T/C [12] 88.4%
